Experimental data reported in PMC9492542, “Brain-restricted mTOR inhibition with binary pharmacology” (Nature, 2022).
“And” between values parts separate entries of the source, which are not always exact repeats. Identical values can stand only once.

Tests used:
human PBMCs [1] = experiment: Proliferation of anti-CD3/anti-CD28 stimulated PBMCs (120 h); type: cell-based; set-up: PBMC cell proliferation: unit not given here
human PBMCs [2] = experiment: IL-2 secretion of stimulated PBMCs (sandwich ELISA); type: cell-based; set-up: unit not given here
mTOR = mTOR signalling in mouse whole brain and skeletal muscle after single i.p. dose (immunoblot, insulin stimulated); type: in vivo; details: for p-4EBP1 Brain, fold relative to no insulin, normalized to GAPDH / p-4EBP1 Muscle, fold relative to no insulin, normalized to GAPDH / p-RPS6 Brain, fold relative to no insulin, normalized to GAPDH / p-RPS6 Muscle, fold relative to no insulin, normalized to GAPDH: RL1 1 mg/kg, RB 40 mg/kg, insulin 250 mU, listed as RL1
Procedure: Whole brain and skeletal muscle were analyzed by immunoblot.

MTORC1 = experiment: Equilibrium constants for mTORC1 binding used in the model; details: read-out: Kd4 (drug binding to MTORC1 without FKBP); estimated, affinity of the TORKi portion for MTORC1
U87MG = experiment: Orthotopic intracranial U87MG-luciferase glioblastoma xenograft
[3] = 0.005081 nM RapaLink-1, +10 μM RapaBlock
[4] = 0.005081 nM RapaLink-1, No RapaBlock
[5] = 0.015242 nM RapaLink-1, +10 μM RapaBlock
[6] = 0.015242 nM RapaLink-1, No RapaBlock
[7] = 0.045725 nM RapaLink-1, +10 μM RapaBlock
[8] = 0.045725 nM RapaLink-1, No RapaBlock
[9] = 0.137174 nM RapaLink-1, +10 μM RapaBlock
[10] = 0.137174 nM RapaLink-1, No RapaBlock
[11] = 0.411523 nM RapaLink-1, +10 μM RapaBlock
[12] = 0.411523 nM RapaLink-1, No RapaBlock
[13] = 1.23457 nM RapaLink-1, +10 μM RapaBlock
[14] = 1.23457 nM RapaLink-1, No RapaBlock
[15] = 3.7037 nM RapaLink-1, +10 μM RapaBlock
[16] = 3.7037 nM RapaLink-1, No RapaBlock
[17] = 11.1111 nM RapaLink-1, +10 μM RapaBlock
[18] = 11.1111 nM RapaLink-1, No RapaBlock
[19] = 33.3333 nM RapaLink-1, +10 μM RapaBlock
[20] = 33.3333 nM RapaLink-1, No RapaBlock
[21] = 100 nM RapaLink-1, +10 μM RapaBlock
[22] = 100 nM RapaLink-1, No RapaBlock
[23] = BALB/c nu/nu mice, RapaLink-1 1 mg per kg, RapaBlock 40 mg per kg, 4 h or 24 h
[24] = U87MG-Luc, day 0, individual mice

With `CO[C@H]1C[C@@H]2CC[C@@H](C)[C@@](O)(O2)C(=O)C(=O)N2CCCC[C@H]2C(=O)O[C@H]([C@H](C)C[C@@H]2CC[C@@H](OCCOCc3cn(CCOCCOCCOCCOCCOCCOCCOCCOCCC(=O)NCCCCn4nc(-c5ccc6oc(N)nc6c5)c5c(N)ncnc54)nn3)[C@H](OC)C2)CC(=O)[C@H](C)/C=C(\C)[C@@H](O)[C@@H](OC)C(=O)[C@H](C)C[C@H](C)/C=C/C=C/C=C/1C` [RapaLink-1] the PBMC cell proliferation (human PBMCs [1]; [3]) was 104.4 and 111.7 and 94.4, the PBMC cell proliferation (human PBMCs [1]; [4]) was 115.8 and 102.5 and 98.3 and the PBMC cell proliferation (human PBMCs [1]; [5]) was 110 and 113.9 and 99.3. For the same molecule, the PBMC cell proliferation (human PBMCs [1]; [6]) was 121.8 and 109.1 and 110.9, the PBMC cell proliferation (human PBMCs [1]; [7]) was 112.2 and 110.5 and 104.3 and the PBMC cell proliferation (human PBMCs [1]; [8]) was 121.5 and 108 and 104.7. For the same molecule, the PBMC cell proliferation (human PBMCs [1]; [9]) was 110.3 and 116.4 and 104.2, the PBMC cell proliferation (human PBMCs [1]; [10]) was 113.1 and 112.8 and 102.9 and the PBMC cell proliferation (human PBMCs [1]; [11]) was 114.7 and 112.8 and 107.7. For the same molecule, the PBMC cell proliferation (human PBMCs [1]; [12]) was 98.2 and 98.7 and 94.9, the PBMC cell proliferation (human PBMCs [1]; [13]) was 109.6 and 111.8 and 107 and the PBMC cell proliferation (human PBMCs [1]; [14]) was 44.3 and 45.5 and 45.3. For the same molecule, the PBMC cell proliferation (human PBMCs [1]; [15]) was 105.8 and 104.9 and 94.5, the PBMC cell proliferation (human PBMCs [1]; [16]) was 29.2 and 28.4 and 25.5 and the PBMC cell proliferation (human PBMCs [1]; [17]) was 84.3 and 94.6 and 81. For the same molecule, the PBMC cell proliferation (human PBMCs [1]; [18]) was 13.5 and 22.4 and 19.1, the PBMC cell proliferation (human PBMCs [1]; [19]) was 64.4 and 70.2 and 62.9 and the PBMC cell proliferation (human PBMCs [1]; [20]) was 20.6 and 20 and 17.2. For the same molecule, the PBMC cell proliferation (human PBMCs [1]; [21]) was 39.8 and 43.7 and 38.7, the PBMC cell proliferation (human PBMCs [1]; [22]) was 17.8 and 16.4 and 15.6 and the “inhibition of PBMC proliferation” value (human PBMCs [1]; 5 days) was “potently inhibited proliferation of PBMCs at nanomolar concentrations”. For the same molecule, the IL-2 secretion (human PBMCs [2]; [3]) was 4596.86 and 6574.88 and 5859.62, the IL-2 secretion (human PBMCs [2]; [4]) was 6581.16 and 6332.27 and 5840.51 and the IL-2 secretion (human PBMCs [2]; [5]) was 4621.98 and 5392.72 and 5694.48. The IL-2 secretion (human PBMCs [2]; [6]) was 6342.48 and 6161.37 and 6860.66, the IL-2 secretion (human PBMCs [2]; [7]) was 5493.48 and 5276.26 and 6056.43 and the IL-2 secretion (human PBMCs [2]; [8]) was 6261.35 and 6059.04 and 6285.42. The IL-2 secretion (human PBMCs [2]; [9]) was 4501.07 and 6329.65 and 6310.02, the IL-2 secretion (human PBMCs [2]; [10]) was 6367.08 and 6367.6 and 6351.64 and the IL-2 secretion (human PBMCs [2]; [11]) was 5797.33 and 5310.02 and 6522.53. For the same molecule, the IL-2 secretion (human PBMCs [2]; [12]) was 6337.77 and 6266.32 and 6532.48, the IL-2 secretion (human PBMCs [2]; [13]) was 5361.84 and 6623.29 and 6201.15 and the IL-2 secretion (human PBMCs [2]; [14]) was 2712.8 and 2327.56 and 3337.76. The IL-2 secretion (human PBMCs [2]; [15]) was 5860.66 and 6735.83 and 6648.15, the IL-2 secretion (human PBMCs [2]; [16]) was 362.628 and 408.689 and 558.388 and the IL-2 secretion (human PBMCs [2]; [17]) was 4848.63 and 4895.73 and 6502.64. For the same molecule, the IL-2 secretion (human PBMCs [2]; [18]) was 251.4 and 437.215 and 324.156, the IL-2 secretion (human PBMCs [2]; [19]) was 4350.33 and 5093.33 and 4877.15 and the IL-2 secretion (human PBMCs [2]; [20]) was 275.478 and 292.227 and 264.486. The IL-2 secretion (human PBMCs [2]; [21]) was 2837.9 and 2542.68 and 2708.61, the IL-2 secretion (human PBMCs [2]; [22]) was 278.356 and 273.907 and 280.974 and the “p-4EBP1 Brain, fold relative to no insulin, normalized to GAPDH” value (mTOR; 4h) was 1.26 and 1.03 and 0.71. The “p-4EBP1 Muscle, fold relative to no insulin, normalized to GAPDH” value (mTOR; 4h) was 1 and 1.04 and 1.12, the “p-RPS6 Brain, fold relative to no insulin, normalized to GAPDH” value (mTOR; 4h) was 1.23 and 1.15 and 1.11 and the “p-RPS6 Muscle, fold relative to no insulin, normalized to GAPDH” value (mTOR; 4h) was 0.9 and 1.3 and 1.14. The “p-4EBP1 Brain, fold relative to no insulin, normalized to GAPDH” value (mTOR; 24h) was 0.98 and 0.96 and 0.78, the “p-4EBP1 Muscle, fold relative to no insulin, normalized to GAPDH” value (mTOR; 24h) was 1.18 and 1.08 and 1.1 and the “p-RPS6 Brain, fold relative to no insulin, normalized to GAPDH” value (mTOR; 24h) was 0.89 and 0.78 and 1.52. The “p-RPS6 Muscle, fold relative to no insulin, normalized to GAPDH” value (mTOR; 24h) was 1.11 and 1.39, the “mTOR activity in brain (p-S6, p-4EBP1)” value (mTOR; [23]) was “potently inhibited mTOR signalling in both skeletal muscle and brain tissues” and the “mTOR activity in skeletal muscle (p-S6, p-4EBP1)” value (mTOR; [23]) was “potently inhibited mTOR signalling in both skeletal muscle and brain tissues”. The Kd (MTORC1) was 5 nM, the “tumour growth and survival” value (U87MG; RapaLink-1 1 mg per kg, RapaBlock 40 mg per kg, i.p. every 5 days) was “significantly suppressed tumour growth and improved survival” and the Mouse weight (U87MG; [24]) was 25.3 g and 21.6 g and 19 g and 22.3 g and 21.7 g and 23.2 g. For the same molecule, the “Tumor size (measured by bioluminescence)” value (U87MG; [24]) was 4240000 and 1010000 and 1910000 and 5080000 and 3680000 and 9440000 and the Mouse weight (U87MG; U87MG-Luc, day 5, individual mice) was 26.2 g and 22.3 g and 20.2 g and 23.3 g and 23.2 g (2×).
